In US20060293351A1, “Promotion of wound healing” (priority 1999, published 2006):

How the values were obtained:
[1] = test system: full depth incision in the skin; test: Wound healing in irradiated and wounded mice (histology, collagen type I immunohistochemistry); assay type: in vivo; details: 1 mg per mouse i.p. every other day, 14 days
Method: The effect of Halofuginone on wound healing was examined by using mice which were first irradiated and then wounded.
The experiment was conducted as follows. First, C3H, defined-flora, pathogen-free female mice of 12-14 weeks of age were anesthetized with 60 mg/kg sodium […]. The mice were then shaved. One group of mice was then irradiated as follows. First, a flap of skin about 40 mm long and about 20 mm wide was pulled through a slit in the lead cover of an irradiation jig and secured with tape, so that only the flap of skin was exposed. This exposed skin as then irradiated by using a 175 kVp/20 mA orthovoltage X-ray source, with a 2 mm Cu filter at a dose rate of 1.0 Gy/min. A standard dose of 18 Gy was delivered.
All of the mice were then wounded by making a full depth incision, about 25 mm long, in the skin along the midline of the lower back. Note that for the irradiated animals, the wound was made within the irradiated area, immediately following irradiation. For all mice, the incision was immediately closed by 3-4 metallic wound closure clips which were removed 2 days later.
After wounding, the mice were injected i.p. every other day, either with 1 mg per mouse of Halofuginone or with saline as a control. […]

collagen α1(I) gene = test: Collagen α1(I) gene expression at the stricture site (in situ hybridization, image analysis); assay type: in vivo, rats; details: after coagulation treatment, 3 biopsies for each type of treatment
Method: The experiments were performed as follows. First, urethral catherization was performed on tile rats with a 23 G Quik-Cath (Baxter, Ireland) sheath. A spinal needle was inserted into the sheath, and was used to apply a coagulation current at a level of 10 W to the outer end of the needle for 1 second at three locations, 8, 10 and 12 mm from the meatus, in order to produce urethral strictures. Halofuginone was given for 7 days starting at the day of stricture formation, either orally at concentrations of 1 ppm and 5 ppm in the diet, or by injection of 0.03% Halofuginone dissolved in 2% lignocaine directly into the urethra once a day. After 21 days, the rats were sacrificed and the sutures were reopened to determine the level of urethral stricture formation, at which time biopsies of the tissue were taken. For hybridization with the genetic probe, the sections were deparafinized in xylene, rehydrated through a graded series of ethanol solutions, rinsed in distilled water for 5 minutes and then incubated in 2×SSC at 70° C. for 30 minutes. The sections were then rinsed in distilled water and treated with pronase, 0.125 mg/ml in 50 mM Tris-HCl, 5 mM EDTA, pH 7.5, for 10 minutes. Alter digestion, the slides were rinsed with distilled water, post-fixed in 10% formalin in PBS and blocked in 0.2% glycine. […] Alkaline phosphatase activity was detected in the sections as previously described [Knopov. […]

[2] = test system: fibroblasts derived from rat urethra; test: cells; assay type: cell-based
Method: Urethral fibroblasts were obtained from three normal male rats, and were processed under sterile conditions. The urethra was cut into 1-2 mm pieces and rinsed several times in a solution containing 0.2 ml/10 ml penicillin/streptomycin and 50 micrograms/ml gentamycin. Each piece of urethra was placed in a 1 ml well of a 24 well plate (Greiner Labortchnik, Germany). Each well was filled with DMEM (Dulbecco's Modified Eagle's Medium), containing […] of D-glucose. 25% FCS (fetal calf serum), 0.1 ml/10 ml penicillin/streptomycin, 0.1 ml/10 ml glutamine. 50 micrograms/ml gentamycin and 2.5 micrograms/ml amphotericin B. The wells were incubated in an incubator containing 5% CO2 at 37° C. Half of the medium was replaced after 10 days. Two to three days later the cultures were trypsinized with trypsin-EDTA medium. The content of each pair of wells was combined, resuspended in DMEM and placed into one 250-ml flask containing 5 ml of medium. When the cell cultures reached confluency, they were transferred to new flasks with a 1:5 ratio of old to new medium. The concentration of FCS was then decreased to 10%.
For the evaluation of the synthesis of CDP and NCDP, cells were incubated for 24 hours with various concentrations of Halofuginone in 0.5 m glutamine-free DMEM containing 5% FCS, ascorbic acid (50 micrograms/ml), β-aminopropionitrile (50 micrograms/ml) and 2 micro-curies of [^3H]proline. At the end of the incubation period, the medium was decanted and incubated with or without collagenase for 18 hours, followed by TCA precipitation. The amount of radiolabeled collagen was estimated as the difference between total [^3H]proline containing proteins and protein remaining after collagenase digestion.

O=C(CC1NCCC[C@H]1O)Cn1cnc2cc(Br)c(Cl)cc2c1=O (stereo partly drawn) [Halofuginone]
collagen content in the wound ([1]; irradiated mouse (18 Gy)): significantly lowered
healing of the wound ([1]; wounded and irradiated skin): the wound still healed
reduction in the expression of the collagen α1(I) gene (collagen α1(I) gene): 5.3 fold
number of cells [2]: did not affect
appearance of non-collagenase digestible proteins (NCDP) ([2]; 24 hours incubation): did not affect
inhibition at 0.01 µM ([2]; Rattus norvegicus, Fibroblast, 10^−8 M Halofuginone, 24 hours, read-out: inhibition of the levels of collagenase-digestible proteins (CDP)): 40%
